Data published in patent US8889688B2, “Piperazines as antimalarial agents” (Actelion Pharmaceuticals Ltd., priority 2011, dated 2014).
Read-outs that look alike come from different tables or passages of the source.

Test system: erythrocytic stages of P. falciparum NF54
Assay: Plasmodium falciparum in vitro assay, [3H] hypoxanthine incorporation
Assay type: cell-based
Details: P. falciparum NF54 in human red blood cells, 48 h + 24 h incubation
Description: In Vitro Antimalarial Activity: Plasmodium falciparum In Vitro Assay In vitro activity against erythrocytic stages of P. falciparum in human red blood cells is determined using a [^3H] hypoxanthine incorporation assay. […] Thereafter, the parasite cultures incubated in screening medium containing washed human red blood cells at 2.5% hematocrit (0.3% parasitemia) are added to the serially diluted compounds and incubated in a humidifying atmosphere at 37° C., 4% CO2, 3% O2, and 93% N2. After 48 h, [^3H] hypoxanthine (0.5 μCi) is added to each well of a plate. The plates are incubated for a further 24 h under the same conditions then harvested with a Betaplate cell harvester (Wallac) and washed with distilled water. The dried filters are inserted into a plastic foil with 10 mL of scintillation fluid, and counted in a Betaplate liquid scintillation counter. IC50 values are calculated from sigmoidal inhibition curves using Microsoft Excel.

[1] = Plasmodium falciparum, Erythrocyte, 72 h, screening medium with Albumax (5 g/L), read-out: IC50 on NF54 (with Albumax)
[2] = Plasmodium falciparum, Erythrocyte, 72 h, screening medium with human serum (50% final concentration), read-out: IC50 on NF54 (with 50% Serum)

Structure (SMILES)	IC50 [1] [nM]	IC50 [2] [nM]	IC50 (screening medium with Albumax (5 g/L), read-out: IC50 on NF54 (with Albumax)) [nM]	IC50 (screening medium with human serum (50% final concentration), read-out: IC50 on NF54 (with 50% Serum)) [nM]
COc1ccc(C=CC(=O)N(Cc2ccc(N3CCN(C(C)=O)CC3)cc2)[C@@H](Cc2ccccc2)C(=O)N2CCN(Cc3ccc(N(C)C)cc3)CC2)cn1 [Example 13, (S)-N-[4-(4-Acetyl-piperazin-1-yl)-benzyl]-N-{1-benzyl-2-[4-(4-dimethylamino-benzyl)-piperazin-1-yl]-2-oxo-ethyl}-3-(6-methoxy-pyridin-3-yl)-acrylamide]	12	46	–	–
CCCc1ccc(C=CC(=O)N(Cc2ccc(N3CCN(C(C)=O)CC3)cc2)[C@@H](Cc2ccccc2)C(=O)N2CCN(Cc3ccc(N(C)C)cc3)CC2)cc1 [Example 68, (S)-N-[4-(4-Acetyl-piperazin-1-yl)benzyl]-N-{1-(4-(4-(dimethylamino)benzyl)piperazin-1-yl)-1-oxo-3-phenylpropan-2-yl}-3-(4-propylphenyl)acrylamide]	0.7	8	–	–
CC(=O)N1CCN(c2ccc(CN(C(=O)C=Cc3ccc(F)cc3)[C@@H](Cc3ccccc3)C(=O)N3CCN(Cc4ccc(N(C)C)cc4)CC3)cc2)CC1 [Example 72, (S)-N-[4-(4-Acetyl-piperazin-1-yl)benzyl]-N-{1-(4-(4-(dimethylamino)benzyl)piperazin-1-yl)-1-oxo-3-phenylpropan-2-yl}-3-(4-fluorophenyl)acrylamide]	10	91	–	–
COc1ccc(CN2CCN(C(=O)[C@H](Cc3ccccc3)N(Cc3ccc(N4CCN(C(C)=O)CC4)cc3)C(=O)C=Cc3ccc(C(F)(F)F)cc3)CC2)cc1 [Example 63, (S)-N-[4-(4-Acetyl-piperazin-1-yl)-benzyl]-N-{1-benzyl-2-[4-(4-methoxy-benzyl)-piperazin-1-yl]-2-oxo-ethyl}-3-(4-trifluoromethyl-phenyl)-acrylamide]	3.2	17.8	–	–
CC(=O)Nc1ccc(C=CC(=O)N(Cc2ccc(N3CCN(C(C)=O)CC3)cc2)[C@@H](Cc2ccccc2)C(=O)N2CCN(Cc3ccc(N(C)C)cc3)CC2)cc1 [Example 17, (S)-3-(4-Acetylamino-phenyl)-N-[4-(4-acetyl-perazin-1-yl)-benzyl]-N-{1-benzyl-2-[4-(4-dimethylamino-benzyl)-piperazin-1-yl]-2-oxo-ethyl}-acrylamide]	–	–	4.3	39
CC(=O)N1CCN(c2ccc(CN(C(=O)C=Cc3ccccc3)[C@@H](Cc3ccccc3)C(=O)N3CCN(Cc4ccc(N(C)C)cc4)CC3)cc2)CC1 [Example 66, (S)-N-[4-(4-Acetyl-piperazin-1-yl)benzyl]-N-{1-(4-(4-(dimethylamino)benzyl)piperazin-1-yl)-1-oxo-3-phenylpropan-2-yl}cinnamamide]	24.6	113	–	–
CC(=O)N1CCN(c2ccc(CN(C(=O)C=Cc3ccc(C)cc3)[C@@H](Cc3ccccc3)C(=O)N3CCN(Cc4ccc(N(C)C)cc4)CC3)cc2)CC1 [Example 67, (S)-N-[4-(4-Acetyl-piperazin-1-yl)benzyl]-N-{1-[4-(4-(dimethylamino)benzyl)piperazin-1-yl]-1-oxo-3-phenylpropan-2-yl}-3-(p-tolyl)acrylamide]	< 3.1	17.5	–	–
CC(=O)N1CCN(c2ccc(CN(C(=O)C=Cc3ccc(C#N)cc3)[C@@H](Cc3ccccc3)C(=O)N3CCN(Cc4ccc(N(C)C)cc4)CC3)cc2)CC1 [Example 71, (S)-N-[4-(4-Acetyl-piperazin-1-yl)benzyl]-3-(4-cyanophenyl)-N-{1-(4-(4-(dimethylamino)benzyl)piperazin-1-yl)-1-oxo-3-phenylpropan-2-yl}acrylamide]	18	62	–	–
CC(=O)N1CCN(c2ccc(CN(C(=O)C=Cc3ccc(C(F)(F)F)nc3)[C@@H](Cc3ccccc3)C(=O)N3CCN(Cc4ccc(N(C)C)cc4)CC3)cc2)CC1 [Example 12, (S)-N-[4-(4-Acetyl-piperazin-1-yl)-benzyl]-N-{1-benzyl-2-[4-(4-dimethylamino-benzyl)-piperazin-1-yl]-2-oxo-ethyl}-3-(6-trifluoromethyl-pyridin-3-yl)-acrylamide]	17	74	–	–
CC(=O)N1CCN(c2ccc(CN(C(=O)C=Cc3ccc(C(F)(F)F)cc3)[C@@H](Cc3ccccc3)C(=O)N3CCN(Cc4ccc(OC(C)C)cc4)CC3)cc2)CC1 [Example 65, (S)-N-[4-(4-Acetyl-piperazin-1-yl)-benzyl]-N-{1-benzyl-2-[4-(4-isopropoxy-benzyl)-piperazin-1-yl]-2-oxo-ethyl}-3-(4-trifluoromethyl-phenyl)-acrylamide]	2.8	14	–	–
CC(=O)N1CCN(c2ccc(CN(C(=O)C=Cc3ccc(C(F)(F)F)cc3)[C@@H](Cc3ccccc3)C(=O)N3CCN(Cc4ccc(N(C)C)cc4)CC3)cc2)CC1 [Example 11, (S)-N-[4-(4-Acetyl-piperazin-1-yl)-benzyl]-N-{1-benzyl-2-[4-(4-dimethylamino-benzyl)-piperazin-1-yl]-2-oxo-ethyl}-3-(4-trifluoromethyl-phenyl)-acrylamide]	4	21	–	–
CC(=O)N1CCN(c2ccc(CN(C(=O)C=Cc3ccc(S(C)(=O)=O)cc3)[C@@H](Cc3ccccc3)C(=O)N3CCN(Cc4ccc(C#N)cc4)CC3)cc2)CC1 [Example 26, (S)-N-[4-(4-Acetyl-piperazin-1-yl)-benzyl]-N-{1-benzyl-2-[4-(4-cyano-benzyl)-piperazin-1-yl]-2-oxo-ethyl}-3-(4-methanesulfonyl-phenyl)-acrylamide]	18	33	–	–
CC(=O)N1CCN(c2ccc(CN(C(=O)C=Cc3ccc(Cl)cc3)[C@@H](Cc3ccccc3)C(=O)N3CCN(Cc4ccc(N(C)C)cc4)CC3)cc2)CC1 [Example 73, (S)-N-[4-(4-Acetyl-piperazin-1-yl)benzyl]-3-(4-chlorophenyl)-N-{1-(4-(4-(dimethylamino)benzyl)piperazin-1-yl)-1-oxo-3-phenylpropan-2-yl}acrylamide]	3.3	26	–	–
CC(=O)Nc1ccc(C=CC(=O)N(Cc2ccc(N3CCN(C(C)=O)CC3)cc2)[C@@H](Cc2ccccc2)C(=O)N2CCN(Cc3ccc(Cl)cc3)CC2)cc1 [Example 37, (S)-3-(4-Acetylamino-phenyl)-N-[4-(4-acetyl-piperazin-1-yl)-benzyl]-N-{1-benzyl-2-[4-(4-chloro-benzyl)-piperazin-1-yl]-2-oxo-ethyl}-acrylamide]	3.2	28	–	–
CCOc1ccc(C=CC(=O)N(Cc2ccc(N3CCN(C(C)=O)CC3)cc2)[C@@H](Cc2ccccc2)C(=O)N2CCN(Cc3ccc(N(C)C)cc3)CC2)cn1 [Example 14, (S)-N-[4-(4-Acetyl-piperazin-1-yl)-benzyl]-N-{1-benzyl-2-[4-(4-dimethylamino-benzyl)-piperazin-1-yl]-2-oxo-ethyl}-3-(6-ethoxy-pyridin-3-yl)-acrylamide]	3.7	20	–	–
CC(=O)N1CCN(c2ccc(CN(C(=O)C=Cc3ccc(C(F)(F)F)cc3)[C@@H](Cc3ccccc3)C(=O)N3CCN(Cc4ccc([N+](=O)[O-])cc4)CC3)cc2)CC1 [Example 64, (S)-N-[4-(4-Acetyl-piperazin-1-yl)-benzyl]-N-{1-benzyl-2-[4-(4-nitro-benzyl)-piperazin-1-yl]-2-oxo-ethyl}-3-(4-trifluoromethyl-phenyl)-acrylamide]	3.5	43	–	–
CC(=O)c1ccc(C=CC(=O)N(Cc2ccc(N3CCN(C(C)=O)CC3)cc2)[C@@H](Cc2ccccc2)C(=O)N2CCN(Cc3ccc(N(C)C)cc3)CC2)cc1 [Example 70, (S)-3-(4-Acetyl-phenyl)-N-[4-(4-acetyl-piperazin-1-yl)benzyl]-N-{1-(4-(4-(dimethylamino)benzyl)piperazin-1-yl)-1-oxo-3-phenylpropan-2-yl}acrylamide]	< 3.1	16	–	–
COc1ccc(C=CC(=O)N(Cc2ccc(N3CCN(C(C)=O)CC3)cc2)[C@@H](Cc2ccccc2)C(=O)N2CCN(Cc3ccc(N(C)C)cc3)CC2)cc1 [Example 69, (S)-N-[4-(4-Acetyl-piperazin-1-yl)benzyl]-N-{1-(4-(4-(dimethylamino)benzyl)piperazin-1-yl)-1-oxo-3-phenylpropan-2-yl}-3-(4-methoxyphenyl)acrylamide]	< 3.1	17	–	–
CC(=O)N1CCN(c2ccc(CN(C(=O)C=Cc3ccc(C(F)(F)F)nc3)[C@@H](Cc3ccccc3)C(=O)N3CCN(Cc4ccc(N(C)CCO)cc4)CC3)cc2)CC1 [Example 51, (S)-N-[4-(4-Acetyl-piperazin-1-yl)-benzyl]-N-[1-benzyl-2-(4-{4-[(2-hydroxy-ethyl)-methyl-amino]-benzyl}-piperazin-1-yl)-2-oxo-ethyl]-3-(6-trifluoromethyl-pyridin-3-yl)-acrylamide]	10.7	29.8	–	–
